Measured values reported in US20210253520A1, “POLYMYXIN-BASED COMPOUNDS USEFUL AS ANTIBACTERIAL AGENTS” (UNIVERSITAT DE BARCELONA, priority 2018, published 2021).
Converted amounts (≈) assume the structure as drawn. Read-outs that look alike come from different tables or passages of the source. Numbered stars: 1 amine (or outer) side, 2 acyl side, 3 side chain; on linkers, the order of the positions; unused ones are H or OH. Bridge positions count the residues as written; N and C are the ends. Square brackets hold non-standard residues; d marks the D form. Peptide text beside a SMILES is read from it. * marks the point of attachment. X1 = C[C@@H](O)[C@@H](CS[*:1])N[*:2]; dGly(nOct) = CCCCCCCC[C@@H](N)C(=O)O; Hica(2S) = CC(C)C[C@H](O)C(=O)O; Octanoyl = CCCCCCCC(=O)*; Dab = NCC[C@H](N)C(=O)O

Columns and labels:
P. aeruginosa ATCC 27853 = experiment: microbe, parasite or virus in culture; assay type: cell-based; settings: for antibacterial activity (MIC): ATCC 27853; for MIC: resistance profile of strain P. aeruginosa ATCC 27853, Table 3
Description: (§1) The antibacterial activity of the polymyxin lipopeptides was measured at ISGlobal following the microdilution test to determine the Minimal Inhibitory Concentrations (MIC) in sterile 96-well polypropilene plates. The concentration range was 32 a […] in Iso-Sensitest broth (Oxoid, ThermoFisher). The results were carried out in triplicate and the highest MIC is the one shown. Bacterial strains were grown in blood agar plates at 37° C. for 17 h. Fresh colonies were used to prepare a McFarland 0.5 solution that was finally added to the plates at 1 to 100 dilution
(§2) Samples of sensitive and multi-drug resistant bacteria were: E. coli ATCC 25922 E. coli MB1410; K. pneumoniae MB674; P. aeruginosa ATCC 27853; P. aeruginosa 36A.

E. coli ATCC 25922 = experiment: microbe, parasite or virus in culture; assay type: cell-based; settings: for antibacterial activity (MIC): ATCC 25922
Description: as §1, §2

E. coli MB1410 = experiment: microbe, parasite or virus in culture; assay type: cell-based; settings: for MIC: Escherichia coli
Description: as §1, §2

P. aeruginosa 36A = experiment: microbe, parasite or virus in culture; assay type: cell-based; settings: for antibacterial activity (MIC): 36A; for MIC: resistance profile of strain P. aeruginosa 36A, Table 3
Description: as §1, §2

Swiss CD-1 female mice = experiment: Nephrotoxicity study, histopathological scoring of kidney lesions; assay type: in vivo; parameters: key to Group Score (GS): mean of per-animal summed 0-4 lesion scores; higher = more nephrotoxic; key to Animal Score (AS), Partial AS: sum of 0-4 lesion parameter scores; higher = more nephrotoxic; settings: for Animal Score (AS), Partial AS: sum over all mice
Description: Swiss CD-1 female mice weighing approximately 20-24 g (JANVIER Labs) were used, housed in an individually ventilated cage system under specific pathogen-free conditions, and water and food supplied ad libitum. This study plan and the conduct of the study were subjected to review by the Scientific Park of Barcelona Ethical Review Process with the current study procedure Code CEEA (AR) 9377-P2. Mice were administered at a dose of 12 mg/Kg every 2 hours for a total of 6 administrations (total dose 72 mg/Kg), unless otherwise stated. After 20 h, animals were anesthesized with isoflurane, kidneys extracted and prepared for histopathological evaluation, and finally animales were sacrificed. Kidney lesions (tubule dilation, necrosis, tubule casts, cell vacuolization, cell desquamation, and cell swelling) were quantified by microscopical observation (see for instance, Roberts, ACS Infect. Dis., 2015, 1, 568). Each one of these parameters was scored with values from 0 to 4 for each animal, as a global result of observations in kidney. Partial scores have been added up to obtain a final score for each animal (Animal Score, AS). The mean of animal score has been obtained to define the Group Score (GS). The higher the score, the more nephrotoxic a compound is. The nephrotoxicity score has been determined as according to the following table of approximated values: […]

K. pneumoniae MB674 = assay type: cell-based; settings: for antibacterial activity (MIC): MB674; for MIC: resistance profile of strain K. pneumoniae MB674, Table 3
Description: as §1, §2

[1] = Table 6, 12 mg/Kg every 2 hours × 6, subcutaneous, total 72 mg/Kg
[2] = Table 6, mean of animal scores, 12 mg/Kg every 2 hours × 6, subcutaneous, total 72 mg/Kg
[3] = Table 6, sum of mouse scores, 12 mg/Kg every 2 hours × 6, subcutaneous, total 72 mg/Kg
[4] = Table 7, 8 mg/Kg every 2 hours × 6, total 48 mg/Kg
[5] = resistance profile of strain E. coli ATCC 25922, Table 3
[6] = Pseudomonas aeruginosa, ATCC27853, read-out: MIC
[7] = resistance profile of strain E. coli MB1410, Table 3, read-out: MIC
[8] = Escherichia coli, ATCC25922, resistance profile of strain E. coli ATCC 25922, Table 3, read-out: MIC
[9] = Pseudomonas aeruginosa, read-out: MIC
[10] = Table 8, 12 mg/Kg every 2 hours × 6 sc, total 72 mg/Kg, 3 mice

Compound: CCCCCCCC[C@@H](N)C(=O)N[C@H](C(=O)N[C@@H](CCN)C(=O)N[C@H]1CSSC[C@H]([C@@H](C)O)NC(=O)[C@H](CCN)NC(=O)[C@H](CCN)NC(=O)[C@H](CC(C)C)NC(=O)[C@@H](Cc2ccccc2)NC(=O)[C@H](CCN)NC1=O)[C@@H](C)O [Example 5, DAdec-Thr-Dab-cyclo(S-S)[Cys-Dab-DPhe-Leu-Dab-Dab-Ttr]] (H-[dGly(nOct)]T[Dab]C[Dab][dF]L[Dab][Dab]; linker 4-C via X1; N-terminus assumed)
- antibacterial activity (MIC) (P. aeruginosa ATCC 27853): 2 µg/mL
- antibacterial activity (MIC) (E. coli ATCC 25922): 1 µg/mL
- antibacterial activity (MIC) (E. coli MB1410; MB1410): 1 µg/mL
- antibacterial activity (MIC) (P. aeruginosa 36A): 2 µg/mL
- Mice found dead (Swiss CD-1 female mice; [1]): None
- Group Score (GS) (Swiss CD-1 female mice; [2]): 0.4
- Cell desquamation, Partial AS (Swiss CD-1 female mice; [3]): 0
- Cell vacuolization, Partial AS (Swiss CD-1 female mice; [3]): 0
- Cloudy swelling, Partial AS (Swiss CD-1 female mice; [3]): 3
- Tubular casts, Partial AS (Swiss CD-1 female mice; [3]): 0
- Tubular dilation, Partial AS (Swiss CD-1 female mice; [3]): 0
- Tubular necrosis, Partial AS (Swiss CD-1 female mice; [3]): 0
- Animal Score (AS), Partial AS (Swiss CD-1 female mice; [1]): 3
- AS, Partial AS (Swiss CD-1 female mice; [4]): 0
- Cell vacuolization, Partial AS (Swiss CD-1 female mice; [4]): 0
- Cloudy swelling, Partial AS (Swiss CD-1 female mice; [4]): 0
- Group Score (GS) (Swiss CD-1 female mice; [4]): 0
- Mice found dead (Swiss CD-1 female mice; [4]): None
- Tubular casts, Partial AS (Swiss CD-1 female mice; [4]): 0
- Tubular dilation, Partial AS (Swiss CD-1 female mice; [4]): 0
- Tubular necrosis, Partial AS (Swiss CD-1 female mice; [4]): 0
- antibacterial activity (MIC) (K. pneumoniae MB674): 1 µg/mL

Compound: Gentamicin [Gm]
- MIC (P. aeruginosa ATCC 27853): 1.5 µg/mL
- MIC (E. coli ATCC 25922; [5]): 0.5 µg/mL
- MIC (K. pneumoniae MB674): 2 µg/mL

Compound: C[C@@H](O)[C@H]1C(=O)N2C(C(=O)O)=C(S[C@@H]3CN[C@H](C(=O)N(C)C)C3)[C@H](C)[C@H]12 [MP, Meropenem]
- MIC (P. aeruginosa ATCC 27853; [6]): 0.38 µg/mL (≈ 0.991 µM)
- MIC (E. coli ATCC 25922; Escherichia coli, ATCC25922): 0.125 µg/mL (≈ 0.326 µM)
- MIC (E. coli MB1410; [7]): 0.094 µg/mL (≈ 0.245 µM)

Compound: CO/N=C(\C(=O)N[C@@H]1C(=O)N2C(C(=O)[O-])=C(C[N+]3(C)CCCC3)CS[C@H]12)c1csc(N)n1 [FEP, Cefepime]
- MIC (P. aeruginosa ATCC 27853; [6]): 1 µg/mL (≈ 2.08 µM)
- MIC (E. coli ATCC 25922; [8]): 0.06 µg/mL (≈ 0.125 µM)
- MIC (P. aeruginosa 36A; [9]): 8 µg/mL (≈ 16.6 µM)

Compound: Nonanoyl-Dab-Thr-Dab-cyclo(S-S)[Cys-Dab-DPhe-Leu-Dab-Dab-Cys] [compound 1]
- AS, Partial AS (Swiss CD-1 female mice; [10]): 12
- Cell vacuolization, Partial AS (Swiss CD-1 female mice; [10]): 0
- Cloudy swelling, Partial AS (Swiss CD-1 female mice; [10]): 6
- Group Score (GS) (Swiss CD-1 female mice; [10]): 4
- Mice found dead (Swiss CD-1 female mice; [10]): none
- Tubular casts, Partial AS (Swiss CD-1 female mice; [10]): 0
- Tubular dilaion, Partial AS (Swiss CD-1 female mice; [10]): 6
- Tubular necrosis, Partial AS (Swiss CD-1 female mice; [10]): 0
- nephrotoxicity in mice, in words (Swiss CD-1 female mice; nephrotoxicity tests carried out in mice, statement of the background): showed nephrotoxicity

Compound: NCC[C@H](O)C(=O)N[C@@H]1C[C@H](N)[C@@H](O[C@H]2O[C@H](CN)[C@@H](O)[C@H](O)[C@H]2O)[C@H](O)[C@H]1O[C@H]1O[C@H](CO)[C@@H](O)[C@H](N)[C@H]1O [Ak, Amikacin]
- MIC (P. aeruginosa ATCC 27853; [6]): 4 µg/mL (≈ 6.83 µM)
- MIC (E. coli ATCC 25922; [8]): 2 µg/mL (≈ 3.42 µM)
- MIC (E. coli MB1410; [7]): 6 µg/mL (≈ 10.2 µM)
- MIC (P. aeruginosa 36A; [9]): 2 µg/mL (≈ 3.42 µM)

Compound: O=C(O)c1cn(C2CC2)c2cc(N3CCNCC3)c(F)cc2c1=O [Cip, Ciprofloxacin]
- MIC (P. aeruginosa ATCC 27853; [6]): 0.25 µg/mL (≈ 0.754 µM)
- MIC (E. coli ATCC 25922; [8]): 0.06 µg/mL (≈ 0.181 µM)

Compound: CCCCCCCC(=O)N[C@@H](CCN)C(=O)N[C@H](C(=O)N[C@@H](CCN)C(=O)N[C@H]1CSSC[C@H]([C@@H](C)O)NC(=O)[C@H](CCN)NC(=O)[C@H](CCN)NC(=O)[C@H](CC(C)C)OC(=O)[C@@H](CC(C)C)NC(=O)[C@H](CCN)NC1=O)[C@@H](C)O [Example 7, Octanoyl-Dab-Thr-Dab-cyclo(S-S)[Cys-Dab-DLeu-OLe-Dab-Dab-Ttr]] (Octanoyl-[Dab]T[Dab]C[Dab][dL][Hica(2S)][Dab][Dab]; linker 4-C via X1)
- antibacterial activity (MIC) (P. aeruginosa ATCC 27853): 2 µg/mL
- antibacterial activity (MIC) (E. coli ATCC 25922): 8 µg/mL
- antibacterial activity (MIC) (E. coli MB1410; MB1410): 4 µg/mL
- antibacterial activity (MIC) (P. aeruginosa 36A): 4 µg/mL
- antibacterial activity (MIC) (K. pneumoniae MB674): 1 µg/mL

Compound: C[C@@H](O)[C@H]1C(=O)N2C(C(=O)O)=C(SCCN=CN)C[C@H]12 [IP, Imipenem]
- MIC (P. aeruginosa ATCC 27853; [6]): 2 µg/mL (≈ 6.68 µM)
- MIC (E. coli ATCC 25922; Escherichia coli, ATCC25922): 0.125 µg/mL (≈ 0.418 µM)
- MIC (E. coli MB1410; MB1410): 0.125 µg/mL (≈ 0.418 µM)

Compound: CCCCCCCC[C@@H](N)C(=O)N[C@H](C(=O)N[C@@H](CCN)C(=O)N[C@H]1CSSC[C@H]([C@@H](C)O)NC(=O)[C@H](CCN)NC(=O)[C@H](CCN)NC(=O)[C@H](CC(C)C)OC(=O)[C@@H](Cc2ccccc2)NC(=O)[C@H](CCN)NC1=O)[C@@H](C)O [Example 10, DAdec-Thr-Dab-cyclo(S-S)[Cys-Dab-DPhe-Ole-Dab-Dab-Ttr]] (H-[dGly(nOct)]T[Dab]C[Dab][dF][Hica(2S)][Dab][Dab]; linker 4-C via X1)
- antibacterial activity (MIC) (P. aeruginosa ATCC 27853): 2 µg/mL
- antibacterial activity (MIC) (E. coli ATCC 25922): 2 µg/mL
- antibacterial activity (MIC) (E. coli MB1410; MB1410): 1 µg/mL
- antibacterial activity (MIC) (P. aeruginosa 36A): 2 µg/mL
- Mice found dead (Swiss CD-1 female mice; [1]): None
- Group Score (GS) (Swiss CD-1 female mice; [2]): 0
- Cell desquamation, Partial AS (Swiss CD-1 female mice; [3]): 0
- Cell vacuolization, Partial AS (Swiss CD-1 female mice; [3]): 0
- Cloudy swelling, Partial AS (Swiss CD-1 female mice; [3]): 0
- Tubular casts, Partial AS (Swiss CD-1 female mice; [3]): 0
- Tubular dilation, Partial AS (Swiss CD-1 female mice; [3]): 0
- Tubular necrosis, Partial AS (Swiss CD-1 female mice; [3]): 0
- Animal Score (AS), Partial AS (Swiss CD-1 female mice; [1]): 0
- antibacterial activity (MIC) (K. pneumoniae MB674): 2 µg/mL

Compound: CO/N=C(\C(=O)N[C@@H]1C(=O)N2C(C(=O)O)=C(COC(C)=O)CS[C@H]12)c1csc(N)n1 [CTX, Cefotaxime]
- MIC (E. coli ATCC 25922; [8]): 0.5 µg/mL (≈ 1.1 µM)

Compound: C[C@H]1COc2c(N3CCN(C)CC3)c(F)cc3c(=O)c(C(=O)O)cn1c23 [Lev, Levofloxacin]
- MIC (P. aeruginosa ATCC 27853; [6]): 1.5 µg/mL (≈ 4.15 µM)
- MIC (E. coli ATCC 25922; [8]): 0.094 µg/mL (≈ 0.26 µM)

Compound: CC(C)(O/N=C(\C(=O)N[C@@H]1C(=O)N2C(C(=O)[O-])=C(C[n+]3ccccc3)CS[C@H]12)c1csc(N)n1)C(=O)O [CAZ, Ceftacidime]
- MIC (P. aeruginosa ATCC 27853): 0.5 µg/mL (≈ 0.915 µM)
- MIC (E. coli ATCC 25922; [5]): 0.25 µg/mL (≈ 0.457 µM)

Compound: CN(C)c1cc(NC(=O)CNC(C)(C)C)c(O)c2c1C[C@H]1C[C@H]3[C@H](N(C)C)C(O)=C(C(N)=O)C(=O)[C@@]3(O)C(O)=C1C2=O [TG, Tigecicline]
- MIC (P. aeruginosa ATCC 27853): 12 µg/mL (≈ 20.5 µM)
- MIC (E. coli ATCC 25922; [5]): 0.5 µg/mL (≈ 0.854 µM)
- MIC (P. aeruginosa 36A): 12 µg/mL (≈ 20.5 µM)
- MIC (K. pneumoniae MB674): 0.5 µg/mL (≈ 0.854 µM)
